Experimental data taken from PubChem BioAssay (NCI).
“And” between values parts separate entries of the source, which are not always exact repeats. Identical values can stand only once.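 How tested: cells in 96-well plates exposed to compound for 48 hours at five concentrations. GI50 = concentration required for 50% inhibition of growth. Definition used: TGI = concentration required for complete inhibition of growth.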

How the values were obtained:
Assay in all cases: NCI anticancer screen, dose series, 48 h
[1] = tested on: A498 renal
[2] = tested on: HCC-2998 colon
[3] = tested on: HOP-92 NSCLC
[4] = tested on: LOX IMVI melanoma
[5] = tested on: MDA-MB-231 breast
[6] = tested on: NCI-H460 lung
[7] = tested on: PC-3 prostate
[8] = tested on: RXF 393 renal
[9] = tested on: SK-MEL-28 melanoma
[10] = tested on: TK-10 renal

Structure (SMILES) | TGI [1] | TGI [2] [µM] | TGI [3] | TGI [4] [µM] | TGI [5] [µM] | TGI [6] [µM] | TGI [7] [µM] | TGI [8] | TGI [9] [µM] | TGI [10] [µM] | GI50 [3] | GI50 [10] | GI50 [1] | GI50 [8] | GI50 [4] [µM]
CCCCCCCCCCCC(=O)N(CCCCCCCCC)CC(O)C(O)C(OC1OC(CO)C(O)C(O)C1O)C(O)CO (configuration not stated) | 39.5 µM | 32 | 34.4 µM | 40.2 | 43.2 | 35.6 | 39.2 | 50 µM | 35.2 | 29.8 |  |  |  |  | 
COC(=O)/C1=C/C=C\C[C@@]2(C)CC(c3ccoc3)OC(=O)[C@@H]2CC[C@H]1C (some centres not stated) | > 25 µM | > 25 | > 25 µM | > 25 | > 25 | > 25 | > 25 | > 25 µM | > 25 | > 25 |  |  |  |  | 
O=C(O)c1cc(NCc2cc(O)ccc2O)ccc1O | > 100 µM | > 100 | > 100 µM |  | > 100 | > 100 | > 100 | > 100 µM | > 100 | > 100 |  |  |  |  | 
CCOP(=O)(OCC)/C(=C/n1c(=S)[nH]c2ccccc21)C(=O)OC | > 100 µM | > 100 | > 100 µM | > 100 | > 100 | > 31.6 | > 100 | > 100 µM | > 100 | > 100 | > 100 µM | > 100 µM |  |  | 
COC(=O)C1=C(C)NC(C)=C(C(=O)OC)C1c1cccc(/[N+]([O-])=C/c2ccccc2)c1 |  | > 100 | 38 µM | > 100 | 32 | > 100 | > 100 | 30.3 µM | 31.6 | > 100 |  |  |  |  | 
OC(CCN1CCN(CCOC(c2ccccc2)c2ccccc2)CC1)c1ccccc1 (configuration not stated) | 21.6 µM | 28.9 | 75.8 µM | 34.2 | 33.6 | 35.7 | 65.5 | 48.6 µM | 34.4 | 59.8 |  |  |  |  | 
CCOC(=O)c1sc2nc(SC)nc3c2c1NCN3C | 57.6 µM | > 100 | 27.9 µM | > 100 | 92.5 | > 100 | > 100 | 32.8 µM | > 100 | > 100 |  |  |  |  | 
COCC(C#N)NC1CC(OC2CC(O)(C(=O)CO)Cc3c(O)c4c(c(O)c32)C(=O)c2c(OC)cccc2C4=O)OC(C)C1O (configuration not stated) | 0.448 µM | 0.471 | 5 µM | 0.599 | 0.729 | 0.189 | 1.2 | 0.497 µM | 0.527 | 2.42 |  |  |  |  | 
N#Cc1ccc(-c2ccc(Cl)cc2)n(C2OC(CO)C(O)C(O)C2O)c1=S (configuration not stated) | > 100 µM and 57.5 µM | > 100 | > 100 µM and 51.5 µM | > 100 | > 100 | > 100 | > 100 | > 100 µM and 51 µM | > 100 | > 100 | > 100 µM and 14.6 µM | > 100 µM and 49 µM | > 100 µM and 18.9 µM | > 100 µM and 18.7 µM | 
Cc1cn(C2CC(O)C(Cn3nncc3Cn3nc(Br)c(=O)[nH]c3=O)O2)c(=O)[nH]c1=O (configuration not stated) | > 100 µM | > 100 | > 100 µM | > 100 | > 100 |  | > 100 | > 100 µM | > 100 | > 100 |  |  |  |  | 
N=C1C=CC(=C(c2ccc(N)cc2)c2ccc(N)cc2)C=C1 | 17.3 µM | 18.6 | 12.7 µM | 15.4 | 32.5 | 36.9 | 12.4 | 23 µM | 26.1 | 28.1 |  |  |  |  | 
Clc1nc2nc(N3CCNCC3)nc(N3CCCC3)c2[nH]1 |  | 29.5 | 37.2 µM | 29.4 | 31.8 | 32.7 | 33.9 | 27.9 µM | 39.6 | > 100 |  |  |  |  | 
COc1ccc(C2N(c3ccc(C)c(N=C=O)c3)C(=O)N3C(c4ccc(OC)cc4)N(c4ccc(C)c(N=C=O)c4)C(=O)N23)cc1 (configuration not stated) | > 100 µM | > 100 | > 100 µM | > 100 | > 100 | > 100 | > 100 | > 100 µM | > 100 | > 100 |  |  |  |  | 
CN(C)C(=O)N1N[C@H](c2ccccc2)[C@@H]1c1ccccc1 | > 100 µM | > 100 | > 100 µM | > 100 | > 100 |  | > 100 | > 100 µM | > 100 | > 100 |  |  |  |  | 
CCC[N+](C)(C)CCCNC(=O)c1c(O)c2ccccc2[nH]c1=O | > 100 µM | > 100 | > 100 µM | > 100 | > 100 | > 100 | > 100 | > 100 µM | > 100 | > 100 |  |  |  |  | 
CC1(C)CCC2=C(O1)c1ccccc1C(=Nc1ccc([N+](=O)[O-])cc1)C2=O | 33.6 µM | 32.2 | > 100 µM | > 100 | 43.2 | 29.1 | 31.5 | 32.7 µM | 29.8 | 32.6 |  |  |  |  | 7.59
O=c1oc2ccccc2c(O)c1C(c1ccc(OCc2ccccc2)cc1)c1c(O)c2ccccc2oc1=O | > 100 µM | 96.9 | 91.6 µM | > 100 | 69.2 | > 100 | > 100 | > 100 µM | > 100 | > 100 |  |  |  |  | 
